Data reported in patent US9944607B2, “Thiohydantoin derivatives and uses thereof” (Whitehead Institute for Biomedical Research, priority 2012, dated 2018).
Converted amounts (≈) assume the structure as drawn. Like-named read-outs stand apart in the source and are kept apart here. Each block holds one molecule with its values, some of them ahead of it.

Assays:
Candida albicans CaCi-17 = assay: Primary assay: C. albicans CaCi-17 growth inhibition (Alamar Blue); format: cell-based; details: n = 3, 48 hours, tested up to 26 μM
[1] = system: NIH-3T3 mammalian fibroblasts; assay: Counterscreen mammalian cell toxicity assay (Alamar Blue); format: cell-based, murine; details: n = 1, 48 hours, tested up to 26 μM
Description: Quiescent murine fibroblasts were subjected to incubation with compounds of interest for 48 hours. Subsequent cell viability was determined via measuring Alamar Blue fluorescence.
Procedures • After overnight culture, pin compounds into wells at 100 nL/well using the CyBio CyBi-Well pinning instrument. • Return the plates to the tissue culture incubator and incubate the culture for an additional 48 hours at 37° C. under 5% CO2. • At the completion of this incubation, add Alamar Blue solution diluted 1:40 in PBS to each well (10 μL/well) to achieve a final dilution of 1:200. • Incubate the plates for an additional 2-3 hours at 37° C. under 5% CO2. • Read the Relative Fluorescence Intensity (RFU) of wells on a standard plate reader as a measure of relative cell growth. […] 4.4.

Candida albicans CaCi-2 = assay: Primary assay: C. albicans CaCi-2 growth inhibition (Alamar Blue); format: cell-based; details: n = 3, 48 hours, tested up to 26 μM; for IC50: read-out: Growth Inhibition Activity, IC50 (μM), C. albicans (n = 3) CaCi-2
physchem = details: for solubility at 24 h: phosphate buffered saline with 1% DMSO, pH 7.4, aqueous buffer, kinetic from dmso stock
Description: Solubility was determined in phosphate buffered saline (PBS) pH 7.4 with 1% DMSO. Each compound was prepared in duplicate at 100 μM in both 100% DMSO and PBS with 1% DMSO. Compounds were allowed to equilibrate at room temperature with a 250 rpm orbital shake for 24 hours. After equilibration, samples were analyzed by UPLC-MS (Waters, Milford, Mass.) with compounds detected by SIR detection on a single quadrupole mass spectrometer. The DMSO samples were used to create a two-point calibration curve to which the response in PBS was fit.

[2] = read-out: Growth Inhibition Activity, IC50 (μM), 3T3 Fibroblasts (n = 1), Table 4
[3] = Table 4, PBS pH 7.4 with 1% DMSO, 24 hours, room temperature

Growth Inhibition Activity, IC50 (μM), C. albicans (n = 3) CaCi-17 (Candida albicans CaCi-17; Table 4): inactive | IC50 (Candida albicans CaCi-2; Table 4): 1.8 µM | PBS Solubility (physchem; pH 7.4): <1.0 µM
SMILES: CCOC(=O)N1C(=O)C2(CCCCC2)N(c2ccc(OC)cc2)C1=S [compound 56604819]
Growth Inhibition Activity, IC50 (μM), 3T3 Fibroblasts (n = 1) ([1]; Table 4): Inactive

Growth Inhibition Activity, IC50 (μM), C. albicans (n = 3) CaCi-17 (Candida albicans CaCi-17; Table 6): inactive | Growth Inhibition Activity, IC50 (μM), C. albicans (n = 3) CaCi-2 (Candida albicans CaCi-2; Table 6): inactive | solubility at 24 h (physchem): 55 µM (≈ 18.2 µg/mL)
SMILES: CCOC(=O)N1C(=O)N(c2ccc(C)cc2)C2(CCCCC2)C1=O [compound 56604827]
Growth Inhibition Activity, IC50 (μM), 3T3 Fibroblasts (n = 1) ([1]; Table 6): Inactive

Growth Inhibition Activity, IC50 (μM), C. albicans (n = 3) CaCi-17 (Candida albicans CaCi-17; Table 3): inactive | Growth Inhibition Activity, IC50 (μM), C. albicans (n = 3) CaCi-2 (Candida albicans CaCi-2; Table 3): inactive | PBS Solubility (physchem; pH 7.4): 6.6 µM
SMILES: Cc1ccc(N2C(=S)N(C)C(=O)C23CCCCC3)cc1 [compound 56604835]
Growth Inhibition Activity, IC50 (μM), 3T3 Fibroblasts (n = 1) ([1]; Table 3): Inactive

Growth Inhibition Activity, IC50 (μM), C. albicans (n = 3) CaCi-17 (Candida albicans CaCi-17; Table 5): inactive | IC50 (Candida albicans CaCi-2; Table 5): 9.8 µM | PBS Solubility (physchem; pH 7.4): 9.2 µM
SMILES: CCOC(=O)N1C(=O)C2(CCCC2)N(c2ccc(C)cc2)C1=S [compound 56604843]
Growth Inhibition Activity, IC50 (μM), 3T3 Fibroblasts (n = 1) ([1]; Table 5): Inactive

Growth Inhibition Activity, IC50 (μM), C. albicans (n = 3) CaCi-17 (Candida albicans CaCi-17; Table 6): inactive | Growth Inhibition Activity, IC50 (μM), C. albicans (n = 3) CaCi-2 (Candida albicans CaCi-2; Table 6): inactive | solubility at 24 h (physchem): 100 µM (≈ 27.2 µg/mL)
SMILES: Cc1ccc(N2C(=O)N(C)C(=O)C23CCCCC3)cc1 [compound 56604845]
Growth Inhibition Activity, IC50 (μM), 3T3 Fibroblasts (n = 1) ([1]; Table 6): Inactive

Growth Inhibition Activity, IC50 (μM), C. albicans (n = 3) CaCi-17 (Candida albicans CaCi-17; Table 6): inactive | Growth Inhibition Activity, IC50 (μM), C. albicans (n = 3) CaCi-2 (Candida albicans CaCi-2; Table 6): inactive | solubility at 24 h (physchem): < 1 µM
SMILES: CCOC(=O)N1C(=S)N(c2ccc(C)cc2)C(=O)C12CCCCC2 [compound 56604852]
Growth Inhibition Activity, IC50 (μM), 3T3 Fibroblasts (n = 1) ([1]; Table 6): Inactive

Growth Inhibition Activity, IC50 (μM), C. albicans (n = 3) CaCi-17 (Candida albicans CaCi-17; Table 7): inactive | Growth Inhibition Activity, IC50 (μM), C. albicans (n = 3) CaCi-2 (Candida albicans CaCi-2; Table 7): inactive | solubility at 24 h (physchem): 5.9 µM (≈ 1.62 µg/mL)
SMILES: Cc1ccc(N2C(=O)C3(CCCCC3)NC2=S)cc1 [compound 56604856]
Growth Inhibition Activity, IC50 (μM), 3T3 Fibroblasts (n = 1) ([1]; Table 7): Inactive

Second part, the molecule before the results:

SMILES: CC(C)N1C(=S)NC(=O)C12CCCCC2 [compound 56604820]
Growth Inhibition Activity, IC50 (μM), C. albicans (n = 3) CaCi-17 (Candida albicans CaCi-17; Table 7): inactive | Growth Inhibition Activity, IC50 (μM), 3T3 Fibroblasts (n = 1) ([1]; Table 7): Inactive | Growth Inhibition Activity, IC50 (μM), C. albicans (n = 3) CaCi-2 (Candida albicans CaCi-2; Table 7): inactive | solubility at 24 h (physchem): 32 µM (≈ 7.24 µg/mL)

SMILES: CCOC(=O)N1C(=S)NC(=O)C12CCCCC2 [compound 56604829]
Growth Inhibition Activity, IC50 (μM), C. albicans (n = 3) CaCi-17 (Candida albicans CaCi-17; Table 7): inactive | Growth Inhibition Activity, IC50 (μM), 3T3 Fibroblasts (n = 1) ([1]; Table 7): Inactive | Growth Inhibition Activity, IC50 (μM), C. albicans (n = 3) CaCi-2 (Candida albicans CaCi-2; Table 7): inactive | solubility at 24 h (physchem): > 100 µM

SMILES: CCOC(=O)N1C(=O)C2(CCCCC2)NC1=S [compound 56604830]
Growth Inhibition Activity, IC50 (μM), C. albicans (n = 3) CaCi-17 (Candida albicans CaCi-17; Table 4): inactive | Growth Inhibition Activity, IC50 (μM), 3T3 Fibroblasts (n = 1) ([1]; Table 4): Inactive | Growth Inhibition Activity, IC50 (μM), C. albicans (n = 3) CaCi-2 (Candida albicans CaCi-2; Table 4): inactive | PBS Solubility (physchem; pH 7.4): 61 µM

SMILES: CCOC(=O)N1C(=O)C2(CCCCC2)N(c2ccc(CC)cc2)C1=S [compound 56604836]
Growth Inhibition Activity, IC50 (μM), C. albicans (n = 3) CaCi-17 (Candida albicans CaCi-17; Table 4): inactive | IC50 [1, 2]: 19.5 µM | IC50 (Candida albicans CaCi-2; Table 4): 1.9 µM | PBS Solubility (physchem; [3]): <1.0 µM

SMILES: CCOC(=O)N1C(=O)C2(CCCCC2)N(c2ccc(C(C)(C)C)cc2)C1=S [compound 56604837]
Growth Inhibition Activity, IC50 (μM), C. albicans (n = 3) CaCi-17 (Candida albicans CaCi-17; Table 4): inactive | IC50 [1, 2]: 16.5 µM | Growth Inhibition Activity, IC50 (μM), C. albicans (n = 3) CaCi-2 (Candida albicans CaCi-2; Table 4): inactive | PBS Solubility (physchem; [3]): <1.0 µM

SMILES: O=C1NC(=S)NC12CCCCC2 [compound 56604841]
Growth Inhibition Activity, IC50 (μM), C. albicans (n = 3) CaCi-17 (Candida albicans CaCi-17; Table 7): inactive | Growth Inhibition Activity, IC50 (μM), 3T3 Fibroblasts (n = 1) ([1]; Table 7): Inactive | Growth Inhibition Activity, IC50 (μM), C. albicans (n = 3) CaCi-2 (Candida albicans CaCi-2; Table 7): inactive | solubility at 24 h (physchem): > 100 µM

SMILES: Cc1ccc(N2CC(=O)NC2=S)cc1 [compound 56604844]
Growth Inhibition Activity, IC50 (μM), C. albicans (n = 3) CaCi-17 (Candida albicans CaCi-17; Table 7): inactive | IC50 ([1]; Mus musculus, NIH3T3, read-out: Growth Inhibition Activity, IC50 (μM), 3T3 Fibroblasts (n = 1), Table 7): 20.7 µM | Growth Inhibition Activity, IC50 (μM), C. albicans (n = 3) CaCi-2 (Candida albicans CaCi-2; Table 7): inactive | solubility at 24 h (physchem): < 1 µM

SMILES: CCCOC(=O)N1C(=O)C2(CCCCC2)N(c2ccc(C)cc2)C1=S [compound 56604849]
Growth Inhibition Activity, IC50 (μM), C. albicans (n = 3) CaCi-17 (Candida albicans CaCi-17; Table 3): inactive | Growth Inhibition Activity, IC50 (μM), 3T3 Fibroblasts (n = 1) ([1]; Table 3): Inactive | IC50 (Candida albicans CaCi-2; Table 3): 1.2 µM | PBS Solubility (physchem; Table 3, PBS pH 7.4 with 1% DMSO, 24 hours, room temperature): <1.0 µM

SMILES: CCOC(=O)N1C(=O)C(C)(C)N(c2ccc(C)cc2)C1=S [compound 56604873]
Growth Inhibition Activity, IC50 (μM), C. albicans (n = 3) CaCi-17 (Candida albicans CaCi-17; Table 5): inactive | Growth Inhibition Activity, IC50 (μM), 3T3 Fibroblasts (n = 1) ([1]; Table 5): Inactive | Growth Inhibition Activity, IC50 (μM), C. albicans (n = 3) CaCi-2 (Candida albicans CaCi-2; Table 5): inactive
